Reference: patent publication US7235715B2, “Virus-resistant transgenic plants expressing L3” (priority 1998, dated 2007)

Experiments:
[1] = test system: programmed −1 ribosomal frameshifting; assay: Programmed −1 ribosomal frameshifting, lacZ reporter plasmids p−1/p0 in yeast; type: cell-based, Saccharomyces cerevisiae; settings: various concentrations, four hours
[2] = test system: programmed −1 ribosomal frameshifting; settings: in cells and in in vitro translation extracts (ref. 19); cited from earlier work
M1 killer virus = settings: cited from earlier work

Row | Compound | effect on programmed −1 ribosomal frameshifting ([1]; mak8-1 strains) | effect on programmed −1 ribosomal frameshifting ([1]; wild-type cells) | effect on programmed −1 ribosomal frameshifting efficiencies [2] | loss of the yeast L-A and its satellite dsRNA virus M1 (M1 killer virus)
1 | COc1ccc(C[C@H]2NC[C@H](O)[C@H]2OC(C)=O)cc1 [anisomycin] | neither anisomycin nor sparsomycin had any further effect | altered ribosomal frameshifting | alter | promote loss
2 | CSC[S@+]([O-])C[C@H](CO)NC(=O)/C=C/c1c(C)[nH]c(=O)[nH]c1=O [sparsomycin] | neither anisomycin nor sparsomycin had any further effect | altered ribosomal frameshifting | alter | promote loss
